In patent publication US20220306647A1, “NOVEL INDOLE-2-CARBOXAMIDES ACTIVE AGAINST THE HEPATITUS B VIRUS (HBV)” (AICURIS GMBH & CO. KG, priority 2019, published 2022):
pEC50, pIC50: −log10 of the molar value. Read-outs that look alike come from different tables or passages of the source.

Legend:
[1] = molecular target: T1, HBV core protein (C-terminal truncated core protein, 149 amino acids of the N-terminal assembly domain, BODIPY-FL labelled) (UniProt P03146); assay: Biochemical capsid assembly assay (fluorescence quenching)
T1 construct: fused on or other part: A single cysteine added after residue 149, at position 150; It carries the BODIPY-FL maleimide label
Experimental: The screening for assembly effector activity was done based on a fluorescence quenching assay published by Zlotnick et al. (2007). The C-terminal truncated core protein containing 149 amino acids of the N-terminal assembly domain fused to a unique cysteine residue at position 150 and was expressed in E. coli using the pET expression system (Merck Chemicals, Darmstadt). Purification of core dimer protein was performed using a sequence of size exclusion chromatography steps. In brief, the cell pellet from 1 L BL21 (DE3) Rosetta2 culture expressing the coding sequence of core protein cloned NdeI/XhoI into expression plasmid pET21b was treated for 1 h on ice with a native lysis buffer (Qproteome Bacterial Protein Prep Kit; Qiagen, Hilden). After a centrifugation step the supernatant was precipitated during 2 h stirring on ice with 0.23 g/ml of solid ammonium sulfate. Following further centrifugation the resulting pellet was resolved in buffer A (100 mM Tris, pH 7.5; 100 mM NaCl; 2 mM DTT) and was subsequently loaded onto a buffer A equilibrated CaptoCore 700 column (GE HealthCare, Frankfurt). The column flow through containing the assembled HBV capsid was dialyzed against buffer N (50 mM NaHCO3 pH 9.6; 5 mM DTT) before urea was added to a final concentration of 3M to dissociate the capsid into core dimers for 1.5 h on ice. The protein solution was then loaded onto a 1L Sephacryl S300 column. After elution with buffer N core dimer containing fractions were identified by SDS-PAGE and subsequently pooled and dialyzed against 50 mM HEPES pH 7.5; 5 mM DTT. To improve the assembly capacity of the purified core dimers a second round of assembly and disassembly starting with the addition of 5 M NaCl and including the size exclusion chromatography steps described above was performed. From the last chromatography step core dimer containing fractions were pooled and stored in aliquots at concentrations between 1.5 to 2.0 mg/ml at −80° C.
Immediately before labelling the core protein was reduced by adding freshly prepared DTT in a final concentration of 20 mM. After 40 min incubation on ice storage buffer and DTT was removed using a Sephadex G-25 column (GE HealthCare, Frankfurt) and 50 mM HEPES, pH 7.5. For labelling 1.6 mg/ml core protein was incubated at 4° C. and darkness overnight with BODIPY-FL maleimide (Invitrogen, Karlsruhe) in a final concentration of 1 mM. After labelling the free dye was removed by an additional desalting step using a Sephadex G-25 column. Labelled core dimers were stored in aliquots at 4° C. In the dimeric state the fluorescence signal of the labelled core protein is high and is quenched during the assembly of the core dimers to high molecular capsid structures. The screening assay was performed in black 384 well microtiter plates in a total assay volume of 10 μl using 50 mM HEPES pH 7.5 and 1.0 to 2.0 μM labelled core protein. Each screening compound was added in 8 different concentrations using a 0.5 log-unit serial dilution starting at a final concentration of 100 μM, 31.6 μM or 10 μM, In any case the DMSO concentration over the entire microtiter plate was 0.5%. The assembly reaction was started by the injection of NaCl to a final concentration of […] which induces the assembly process to approximately 25% of the maximal quenched signal. 6 min after starting the reaction the fluorescence signal was measured using a Clariostar plate reader (BMG Labtech, Ortenberg) with an excitation of 477 nm and an emission of 525 nm. As 100% and 0% assembly control HEPES buffer containing 2.5 M and 0 M NaCl was used. Experiments were performed thrice in triplicates. EC50 values were calculated by non-linear regression analysis using the Graph Pad Prism 6 software (GraphPad Software, La Jolla, USA).

HBV (HepAD38 cells) = assay: HBV replication assay: determination of HBV DNA from the supernatants of HepAD38 cells; assay type: cell-based; settings: Hepatitis B virus, 144 h, HBV DNA in HepAD38 supernatant at day 6, qPCR, read-out: Cell activity
Experimental: Determination of HBV DNA from the Supernatants of HepAD38 Cells
The anti-HBV activity was analysed in the stable transfected cell line HepAD38, which has been described to secrete high levels of HBV virion particles (Ladner et al., 1997). In brief, HepAD38 cells were cultured at 37° C. at 5% CO2 and 95% humidity in 200 μl maintenance medium, which was Dulbecco's modified Eagle's medium/Nutrient Mixture F-12 (Gibco, Karlsruhe), 10% fetal bovine serum (PAN Biotech Aidenbach) supplemented with 50 μg/ml penicillin/streptomycin (Gibco, Karlsruhe), 2 mM L-glutamine (PAN Biotech, Aidenbach), 400 μg/ml G418 (AppliChem, Darmstadt) and 0.3 μg/ml tetracycline. Cells were subcultured once a week in a 1:5 ratio, but were usually not passaged more than ten times. For the assay 60,000 cells were seeded in maintenance medium without any tetracycline into each well of a 96-well plate and treated with serial half-log dilutions of test compound. To minimize edge effects the outer 36 wells of the plate were not used but were filled with assay medium. On each assay plate six wells for the virus control (untreated HepAD38 cells) and six wells for the cell control (HepAD38 cells treated with 0.3 μg/ml tetracycline) were allocated, respectively. In addition, one plate set with reference inhibitors like BAY 41-4109, entecavir, and lamivudine instead of screening compounds were prepared in each experiment. In general, experiments were performed thrice in triplicates. At day 6 HBV DNA from 100 μl filtrated cell culture supernatant (AcroPrep Advance 96 Filter Plate, […] Supor membran, PALL GmbH, Dreieich) was automatically purified on the MagNa Pure LC instrument using the MagNA Pure 96 DNA and Viral NA Small Volume Kit (Roche Diagnostics, Mannheim) according to the instructions of the manufacturer. EC50 values were calculated from relative copy numbers of HBV DNA In brief, 5 μl of the 100 μl eluate containing HBV DNA were subjected to PCR LC480 Probes Master Kit (Roche) together with 1 μM antisense primer […], 0.5 μM sense primer […], 0.3 μM hybprobes […]-FL and LC640-[…]-PH (TIBMolBiol, Berlin) to a final volume of 12.5 μl. The PCR was performed on the Light Cycler 480 real time system (Roche Diagnostics, Mannheim) using the following protocol: Pre-incubation for 1 min at 95° C., amplification: 40 cycles×(10 sec at 95° C., 50 sec at 60° C., 1 sec at 70° C.), cooling for 10 sec at 40° C. Viral load was quantitated against known standards using HBV plasmid DNA of pCH-9/3091 (Nassal et al., 1990, Cell 63: 1357-1363) and the LightCycler 480 SW 1.5 software (Roche Diagnostics, Mannheim) and EC50 values were calculated using non-linear regression with GraphPad Prism 6 (GraphPad Software Inc., La Jolla, USA).

[2] = assembly started with NaCl, fluorescence read after 6 min, read-out: Assembly activity
[3] = read-out: Assembly activity, assembly started with NaCl, fluorescence read after 6 min

T1 sequence (P03146 whole entry, the tested form may be a part): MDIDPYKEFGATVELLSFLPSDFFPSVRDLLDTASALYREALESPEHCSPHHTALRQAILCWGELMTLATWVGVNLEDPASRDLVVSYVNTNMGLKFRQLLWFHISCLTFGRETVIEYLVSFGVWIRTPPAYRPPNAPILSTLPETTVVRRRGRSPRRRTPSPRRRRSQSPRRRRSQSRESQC

Row | Compound | pIC50 [1, 2] | pEC50 (HBV (HepAD38 cells)) | pIC50 [1, 3]
1 | O=C(NC1CC1)c1noc2c1CN(C(=O)c1cc3ccccc3[nH]1)CC2 [Example 10, N-cyclopropyl-5-(1H-indole-2-carbonyl)-4H,5H,6H,7H-[1,2]oxazolo[4,5-c]pyridine-3-carboxamide] | > 5.30 | > 4.00 | –
2 | CN1C(=O)c2c3c(nn2CCC12CC2)CCN(C(=O)c1cc2c(Cl)cccc2[nH]1)C3 [Example 68, 4′-(4-chloro-1H-indole-2-carbonyl)-13′-methyl-4′, 8′,9′,13′-tetraazaspiro[cyclopropane-1,12′-tricyclo[7.5.0.0^2,7]tetradecane]-1′,7′-dien-14′-one] | > 5.30 | > 6.00 | –
3 | Cc1c(F)ccc2[nH]c(C(=O)N3CCn4ncc(C(=O)N(C)C5(c6cccc(C(=O)O)c6)CC5)c4C3)cc12 [Example 35, 3-{1-[N-methyl-5-(5-fluoro-4-methyl-1H-indole-2-carbonyl)-4H,5H,6H,7H-pyrazolo[1,5-a]pyrazine-3-amido]cyclopropyl}benzoic acid] | – | > 6.00 | > 5.30
4 | CN1C(=O)c2c3c(nn2CC12CC2)CCN(C(=O)c1cc2cc(F)c(Cl)cc2[nH]1)C3 [Example 15, 12′-(6-chloro-5-fluoro-1H-indole-2-carbonyl)-4′-methyl-4′,7′,8′,12′-tetraazaspirol[cyclopropane-1,5′-tricyclo[7.4.0.0^2′7]tridecane]-1′,8′-dien-3′-one] | > 5.30 | > 6.00 | –
5 | Cc1cc(F)cc2[nH]c(C(=O)N3CCc4onc(C(=O)N[C@H](C)C(F)(F)F)c4C3)cc12 [Example 107, 5-(6-fluoro-4-methyl-1H-indole-2-carbonyl)-N-[(2R)-1,1,1-trifluoropropan-2-yl]-4H,5H,6H,7H-[1,2]oxazolo[4,5-c]pyridine-3-carboxamide] | > 5.30 | > 6.00 | –
6 | CN(C(=O)c1cnn2c1CN(C(=O)c1cc3c(F)cc(F)cc3[nH]1)CC2)C1(c2ccc(C(=O)O)cc2)CC1 [Example 75, 4-{1-[N-methyl-5-(4,6-difluoro-1H-indole-2-carbonyl)-4H,5H,6H,7H-pyrazolo[1,5-a]pyrazine-3-amido]cyclopropyl}benzoic acid] | > 5.30 | > 6.00 | –
7 | CN(C(=O)c1cnn2c1CN(C(=O)c1cc3ccccc3[nH]1)CC2)C1(COc2cccc(C(=O)O)c2)CC1 [Example 62, 3-({1-[N-methyl-5-(1H-indole-2-carbonyl)-4H,5H,6H,7H-pyrazolo[1,5-a]pyrazine-3-amido]cyclopropyl}methoxy)benzoic acid] | > 5.30 | > 4.00 | –
8 | O=C(c1cc2ccccc2[nH]1)N1CCc2onc(C(=O)N3CCC(O)CC34CC4)c2C1 (centres unmarked) [Example 95, 4-[5-(1H-indole-2-carbonyl)-4H,5H,6H,7H-[1,2]oxazolo[4,5-c]pyridine-3-carbonyl]-4-azaspiro[2.5]octan-7-ol] | > 5.30 | > 6.00 | –
9 | COCC1(N(C)C(=O)c2noc3c2CN(C(=O)c2cc4ccccc4[nH]2)CC3)CC1 [Example 7, 5-(1H-indole-2-carbonyl)-N-[1-(methoxymethyl)cyclopropyl]-N-methyl-4H,5H,6H,7H-[1,2]oxazolo[4,5-c]pyridine-3-carboxamide] | > 5.30 | > 6.00 | –
10 | CN(CCO)C(=O)c1noc2c1CN(C(=O)c1cc3c(Cl)cccc3[nH]1)CC2 [Example 21, 5-(4-chloro-1H-indole-2-carbonyl)-N-(2-hydroxyethyl)-N-methyl-4H,5H,6H,7H-[1,2]oxazolo[4,5-c]pyridine-3-carboxamide] | > 5.30 | > 6.00 | –
11 | Cc1cc(F)cc2[nH]c(C(=O)N3CCn4ncc(C(=O)N(C)C5(c6ccc(C(=O)O)cc6)CC5)c4C3)cc12 [Example 54, 4-{1-[N-methyl-5-(6-fluoro-4-methyl-1H-indole-2-carbonyl)-4H,5H,6H,7H-pyrazolo[1,5-a]pyrazine-3-amido]cyclopropyl}benzoic acid] | > 5.30 | > 6.00 | –
12 | CN(C(=O)c1cnn2c1CN(C(=O)c1cc3c(Cl)cc(Cl)cc3[nH]1)CC2)C1(c2ccc(C(=O)O)cc2)CC1 [Example 69, 4-{1-[N-methyl-5-(4,6-dichloro-1H-indole-2-carbonyl)-4H,5H,6H,7H-pyrazolo[1,5-a]pyrazine-3-amido]cyclopropyl}benzoic acid] | – | > 6.00 | > 5.30
13 | CN(Cc1ccccc1C(=O)O)C(=O)c1[nH]nc2c1CN(C(=O)c1cc3ccccc3[nH]1)CC2 [Example 24, 2-({1-[5-(1H-indole-2-carbonyl)-2H,4H,5H,6H,7H-pyrazolo[4,3-c]pyridin-3-yl]-N-methylformamido}methyl)benzoic acid] | > 5.30 | 5.00 to 6.00 | –
14 | O=C(c1cc2ccccc2[nH]1)N1CCc2onc(C(=O)N3CCCC34CC4)c2C1 [Example 1, 2-(3-{4-azaspiro[2.4]heptane-4-carbonyl}-4H,5H,6H,7H-[1,2]oxazolo[4,5-c]pyridine-5-carbonyl)-1H-indole] | – | 5.00 to 6.00 | –
15 | O=C(c1cc2ccccc2[nH]1)N1CCc2onc(C(=O)N3CCC(F)(F)C3)c2C1 [Example 25, 2-[3-(3,3-difluoropyrrolidine-1-carbonyl)-4H,5H,6H,7H-[1,2]oxazolo[4,5-c]pyridine-5-carbonyl]-1H-indole] | – | 5.00 to 6.00 | –
16 | CN(C(=O)c1noc2c1CN(C(=O)c1cc3ccccc3[nH]1)CC2)C1(COC(=O)c2ccccc2)CC1 [Example 9, {1-[N-methyl-5-(1H-indole-2-carbonyl)-4H,5H,6H,7H-[1,2]oxazolo[4,5-c]pyridine-3-amido]cyclopropyl}methyl benzoate] | – | > 6.00 | –
